Measurements published in PubChem BioAssay (NCI).
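How tested: cells in 96-well plates exposed to compound for 48 hours at five concentrations. TGI: concentration producing complete growth inhibition.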

How the values were obtained:
[1] = system: P388 leukemia; assay: NCI tumour cell line growth inhibition, 48 h
[2] = system: P388/ADR leukemia; assay: NCI tumour cell line growth inhibition, 48 h

## COc1cccc2c1C(=O)c1c(O)c3c(c(O)c1C2=O)C[C@@](O)(C(=O)CO)C[C@@H]3OC1CC(N)CC(C)O1 (some centres undefined)
[1]
  TGI: 588 nM
[2]
  TGI: 2960 nM

## COC(=O)C[C@](O)(CCCC(C)(C)O)C(=O)O[C@@H]1C(OC)=C[C@]23CCCN2CCc2cc4c(cc2[C@H]13)OCO4
[1]
  TGI: 10.1 nM
[2]
  TGI: 1350 nM
